This is an account of results in patent publication US7122643B2, “Cytostatic lanthanum compounds” (Faustus Forschungs Cie. Translational Cancer Research GmbH, priority 2001, dated 2006).

Assay [1] deals with 13 human tumour xenografts and 10 human tumour cell lines.
In assay [2] the test system is over 50 human tumour cell lines.
Setting [3] is: mean over 13 human tumour xenografts and 10 human tumour cell lines.

Turning to “[tris(1,10-phenantrolin)lanthanum(III)]trithiocyanate”, the “Cytostatic activity (in words)” value in assay [1] (13 human tumour xenografts and 10 human tumour cell lines) was “good cytostatic activity”. Further, in assay [1] (mammary carcinoma cell lines MCF7, MDA468A, parvicellular bronchial carcinoma cell line DMS 114, one each of melanoma, ovarian, kidney cell and non-parvicellular bronchial carcinoma xenografts), the “Activity relative to average of the panel” value is on record as “Above average activities”. In assay [1] (setting [3]), the “Mean IC50” value stood at 3.60 µg/mL and the “Mean IC90” value was found to be 12.1 µg/mL. Besides, the Tumour type selectivity entry in assay [1] (prostate and colorectal carcinoma) was “selectivity for prostate and colorectal carcinoma”. Moreover, the IC50 in assay [1] (read-out: Mean IC50, mean over 13 human tumour xenografts and 10 human tumour cell lines) was determined as 4.21 µM. Moreover, in assay [1] (read-out: Mean IC90, mean over 13 human tumour xenografts and 10 human tumour cell lines), the IC90 is 14.2 µM. The “Cytostatic effectiveness (in words)” value in assay [2] (over 50 human tumour cell lines, 48-h) is on record as “Good effectiveness”. For the same substance, the “Activity relative to average of the panel” value in assay [2] (some melanoma and kidney cell carcinoma cell lines) is listed as “Above average activities”.

As usually defined, the IC50 is the concentration needed to halve the response being measured. Usually IC90 stands for the concentration needed for an effect of 90%.
